Assay results: patent publication US20100197608A1, “USE OF MELANOTROPHIN-POTENTIATING FACTOR AS A THERAPEUTIC AGENT” (priority 2007, published 2010)
Where a SMILES comes first, the peptide text is derived from it.

Legend:
HIV-1IIIB = assay: HIV-1 antiviral assay (CPE reduction) in CEM-SS cells; type: cell-based; conditions: peptide 10 micrograms per ml; 6 days post-infection; MTS
in vitro [1] = conditions: human, CEM-SS cells
MRSA = conditions: 5 micrograms per ml
Streptococcus pneumoniae = type: cell-based; conditions: 5 micrograms per ml
in vitro [2] = conditions: human, MRC-5 cells
Pseudomonas aeruginosa = type: cell-based; conditions: 5 micrograms per ml
[3] = Cytotoxicity in HepG2-2.2.15 cells (dye uptake); conditions: human
MRC-5 cells = conditions: human, 6 days
CEM-SS cells = assay: Cytotoxicity in CEM-SS cells (MTS); conditions: peptide 10 micrograms per ml

For `CC(C)(C)NC(=O)[C@@H]1CN(Cc2cccnc2)CCN1C[C@@H](O)C[C@@H](Cc1ccccc1)C(=O)N[C@H]1c2ccccc2C[C@H]1O` [Indinavir, indinavir], the “% CPE reduction in HIV-1 infected CEM-SS cells” value (HIV-1IIIB) was 100%.
In the case of `NCCCC[C@H](NC(=O)[C@@H](N)CCCCN)C(=O)NCC(=O)N[C@@H](CCC(=O)O)C(=O)O` [MPF, Lys-Lys-Gly-Glu-OH] (H-KKGE-OH), the viability at 10 micrograms per ml (in vitro [1]) is reported as 100%, the “% inhibition” value (MRSA) is reported as 0.0% and the “% inhibition” value (Streptococcus pneumoniae) is reported as 0.0%. The viability at 144 h (in vitro [2]) was 96.1%, the “% inhibition” value (Pseudomonas aeruginosa) was 0.0% and the viability at 144 h, 10 micrograms per ml [3] was 100%.
In the case of `Nc1nc(O)c2ncn(COC(CO)CO)c2n1` [Ganciclovir], the “% Cell viability” value (MRC-5 cells) is reported as 100%.
With `Cc1cn([C@H]2C[C@H](N=[N+]=[N-])[C@@H](CO)O2)c(=O)[nH]c1=O` [AZT] the “% CPE reduction in HIV-1 infected CEM-SS cells” value (HIV-1IIIB) was 99% and the “% Cell viability” value (CEM-SS cells) was 97%.
